Experimental data reported in patent US12545639B2, “3-substituted phenylamidine compounds, preparation and use thereof” (PI INDUSTRIES LTD., priority 2019, dated 2026).

Columns and labels:
Rhizoctonia solani = Rhizoctonia solani (rice sheath blight/potato black scurf) in vitro test, radial growth on potato dextrose agar; assay type: cell-based; details: 168 h, 300 ppm in potato dextrose agar, 25° C., 60% relative humidity, seven days, read-out: control compared to the untreated check (radial growth)
Alternaria solani = Alternaria solani (early blight of tomato/potato) in vitro test, radial growth on potato dextrose agar; assay type: cell-based; details: 168 h, 300 ppm in potato dextrose agar, 25° C., 60% relative humidity, seven days, read-out: control compared to the untreated check (radial growth)
Pyricularia oryzae = experiment: microbe, parasite or virus in culture; assay type: cell-based; details: 168 h, read-out: control compared to the untreated check (radial growth)
Fusarium culmorum = Fusarium culmorum (foot rot of cereals) in vitro test, radial growth on potato dextrose agar; assay type: cell-based; details: 168 h, 300 ppm in potato dextrose agar, 25° C., 60% relative humidity, seven days, read-out: control compared to the untreated check (radial growth)
Method: Compounds were dissolved in 0.3% dimethyl sulfoxide and then added to potato dextrose agar medium just prior to dispensing it into petri dishes. 5 mL medium with the compound in the desired concentration was dispensed into 60 mm sterile petri-plates. After solidification each plate was seeded with a 5 mm size mycelial disc taken from the periphery of an actively growing virulent culture plate. Plates were incubated in growth chambers at 25° C. temperature and 60% relative humidity for seven days and then the radial growth was measured and compared to that of the untreated control.

[1] = test system: Septoria lycopersici/Corynespora cassicola (CORYCA); experiment: Septoria lycopersici/Corynespora cassicola (CORYCA) (leaf spot of tomato) in vitro test, radial growth on potato dextrose agar; assay type: cell-based; details: 168 h, 300 ppm in potato dextrose agar, 25° C., 70% relative humidity, seven days, read-out: control compared to the untreated check (radial growth)
Botrytis cinerea = Botrytis cinerea (gray mold) in vitro test, radial growth on potato dextrose agar; assay type: cell-based; details: 168 h, 300 ppm in potato dextrose agar, 22° C., 90% relative humidity, seven days, read-out: control compared to the untreated check (radial growth)
Phakopsora pachyrhizi = Phakopsora pachyrhizi test in soybean, preventive, in vivo on plants; details: in Glycine max, read-out: Efficacy (% control), disease severity compared to the untreated check
Colletotrichum capsici = Colletotrichum capsici (anthracnose) in vitro test, radial growth on potato dextrose agar; assay type: cell-based; details: Colletotrichum truncatum, 168 h; 300 ppm in potato dextrose agar; 25° C., 60% relative humidity, seven days; read-out: control compared to the untreated check (radial growth)

CCN(C)C=Nc1cc(OC)cc(Cc2ccccc2C(F)(F)F)c1C [Compound 307, N-ethyl-N′-(5-methoxy-2-methyl-3-(2-(trifluoromethyl)benzyl)phenyl)-N-methylformimidamide]
≥ 70%: inhibition of growth at 300 ppm (Rhizoctonia solani) | inhibition of growth at 300 ppm (Alternaria solani) | inhibition of growth at 300 ppm (Pyricularia oryzae) | inhibition of growth at 300 ppm (Fusarium culmorum) | inhibition of growth at 300 ppm [1] | inhibition of growth at 300 ppm (Botrytis cinerea)

CCN(C)C=Nc1cc(F)cc(Cc2ccccc2Cl)c1C [Compound 142, N′-(3-(2-chlorobenzyl)-5-fluoro-2-methylphenyl)-N-ethyl-N-methylformimidamide]
≥ 70%: inhibition of growth at 300 ppm (Rhizoctonia solani) | inhibition of growth at 300 ppm (Alternaria solani) | inhibition of growth at 300 ppm (Pyricularia oryzae) | inhibition of growth at 300 ppm (Fusarium culmorum) | inhibition of growth at 300 ppm [1] | inhibition of growth at 300 ppm (Botrytis cinerea)

CCN(C)C=Nc1cc(Cl)cc(Cc2cc(C)c(F)c(C)c2)c1C [Compound 87, N′-(5-chloro-3-(4-fluoro-3,5-dimethylbenzyl)-2-methylphenyl)-N-ethyl-N-methylformimidamide]
≥ 70%: inhibition of growth at 300 ppm (Rhizoctonia solani) | inhibition of growth at 300 ppm (Alternaria solani) | inhibition of growth at 300 ppm (Pyricularia oryzae) | inhibition of growth at 300 ppm (Fusarium culmorum) | pest or weed control at 500 ppm (Phakopsora pachyrhizi) | inhibition of growth at 300 ppm (Botrytis cinerea)

CCN(C)C=Nc1cc(OC)cc(Cc2ccccc2F)c1C [Compound 266, N-ethyl-N′-(3-(2-fluorobenzyl)-5-methoxy-2-methylphenyl)-N-methylformimidamide]
≥ 70%: inhibition of growth at 300 ppm (Rhizoctonia solani) | inhibition of growth at 300 ppm (Alternaria solani) | inhibition of growth at 300 ppm (Pyricularia oryzae) | inhibition of growth at 300 ppm (Fusarium culmorum) | pest or weed control at 500 ppm (Phakopsora pachyrhizi) | inhibition of growth at 300 ppm [1]

CCN(C)C=Nc1cc(OC)cc(Cc2cccc(OC(F)(F)F)c2)c1C [Compound 305, N-ethyl-N′-(5-methoxy-2-methyl-3-(3-(trifluoromethoxy)benzyl)phenyl)-N-methylformimidamide]
≥ 70%: inhibition of growth at 300 ppm (Rhizoctonia solani) | inhibition of growth at 300 ppm (Alternaria solani) | inhibition of growth at 300 ppm (Pyricularia oryzae) | inhibition of growth at 300 ppm (Fusarium culmorum) | inhibition of growth at 300 ppm [1] | inhibition of growth at 300 ppm (Botrytis cinerea)

CCN(C)C=Nc1cc(Cl)cc(N(C)c2ncccn2)c1C [Compound 214, N′-(5-chloro-2-methyl-3-(methyl(pyrimidin-2-yl)amino)phenyl)-N-ethyl-N-methylformimidamide]
≥ 70%: inhibition of growth at 300 ppm (Rhizoctonia solani) | inhibition of growth at 300 ppm (Alternaria solani) | inhibition of growth at 300 ppm (Pyricularia oryzae) | inhibition of growth at 300 ppm (Fusarium culmorum) | pest or weed control at 500 ppm (Phakopsora pachyrhizi) | inhibition of growth at 300 ppm [1]

CCN(C)C=Nc1cc(Cl)cc(Nc2cccc(Br)c2)c1C [Compound 164, N′-(3-((3-bromophenyl)amino)-5-chloro-2-methylphenyl)-N-ethyl-N-methylformimidamide]
≥ 70%: inhibition of growth at 300 ppm (Rhizoctonia solani) | inhibition of growth at 300 ppm (Alternaria solani) | inhibition of growth at 300 ppm (Pyricularia oryzae) | inhibition of growth at 300 ppm (Fusarium culmorum) | inhibition of growth at 300 ppm [1] | inhibition of growth at 300 ppm (Botrytis cinerea)

CCN(C)C=Nc1cc(F)cc(Cc2ccccc2C(F)(F)F)c1C [Compound 143, N-ethyl-N′-(5-fluoro-2-methyl-3-(2-(trifluoromethyl)benzyl)phenyl)-N-methylformimidamide]
≥ 70%: inhibition of growth at 300 ppm (Colletotrichum capsici) | inhibition of growth at 300 ppm (Rhizoctonia solani) | inhibition of growth at 300 ppm (Alternaria solani) | inhibition of growth at 300 ppm (Pyricularia oryzae) | pest or weed control at 500 ppm (Phakopsora pachyrhizi) | inhibition of growth at 300 ppm [1] | inhibition of growth at 300 ppm (Botrytis cinerea)

CCN(C)C=Nc1cc(F)cc(Cc2ccc(F)c(C)c2)c1C [Compound 203, N-ethyl-N′-(5-fluoro-3-(4-fluoro-3-methylbenzyl)-2-methylphenyl)-N-methylformimidamide]
≥ 70%: inhibition of growth at 300 ppm (Colletotrichum capsici) | inhibition of growth at 300 ppm (Rhizoctonia solani) | inhibition of growth at 300 ppm (Alternaria solani) | inhibition of growth at 300 ppm (Pyricularia oryzae) | pest or weed control at 500 ppm (Phakopsora pachyrhizi) | inhibition of growth at 300 ppm [1] | inhibition of growth at 300 ppm (Botrytis cinerea)

CCN(C)C=Nc1cc(OC)cc(Cc2cc(F)ccc2Cl)c1C [Compound 293, N′-(3-(2-chloro-5-fluorobenzyl)-5-methoxy-2-methylphenyl)-N-ethyl-N-methylformimidamide]
≥ 70%: inhibition of growth at 300 ppm (Rhizoctonia solani) | inhibition of growth at 300 ppm (Alternaria solani) | inhibition of growth at 300 ppm (Pyricularia oryzae) | inhibition of growth at 300 ppm (Fusarium culmorum) | inhibition of growth at 300 ppm [1] | inhibition of growth at 300 ppm (Botrytis cinerea)

CCN(C)C=Nc1cc(F)cc(Cc2cccc(Cl)c2)c1C [Compound 144, N′-(3-(3-chlorobenzyl)-5-fluoro-2-methylphenyl)-N-ethyl-N-methylformimidamide]
≥ 70%: inhibition of growth at 300 ppm (Colletotrichum capsici) | inhibition of growth at 300 ppm (Rhizoctonia solani) | inhibition of growth at 300 ppm (Alternaria solani) | inhibition of growth at 300 ppm (Pyricularia oryzae) | pest or weed control at 500 ppm (Phakopsora pachyrhizi) | inhibition of growth at 300 ppm [1] | inhibition of growth at 300 ppm (Botrytis cinerea)

CCN(C)C=Nc1cc(C)cc(Cc2ccc(Br)cc2F)c1Cl [Compound 217, N′-(3-(4-bromo-2-fluorobenzyl)-2-chloro-5-methylphenyl)-N-ethyl-N-methylformimidamide]
≥ 70%: inhibition of growth at 300 ppm (Colletotrichum capsici) | inhibition of growth at 300 ppm (Rhizoctonia solani) | inhibition of growth at 300 ppm (Alternaria solani) | inhibition of growth at 300 ppm (Pyricularia oryzae) | pest or weed control at 500 ppm (Phakopsora pachyrhizi) | inhibition of growth at 300 ppm [1] | inhibition of growth at 300 ppm (Botrytis cinerea)

CCN(C)C=Nc1cc(OC)cc(N(C)c2ccc(OC)c(F)c2)c1C [Compound 271, N-ethyl-N′-(3-((3-fluoro-4-methoxyphenyl)(methyl)amino)-5-methoxy-2-methylphenyl)-N-methylformimidamide]
≥ 70%: inhibition of growth at 300 ppm (Alternaria solani) | inhibition of growth at 300 ppm (Pyricularia oryzae) | inhibition of growth at 300 ppm (Fusarium culmorum) | inhibition of growth at 300 ppm [1]

CCN(C)C=Nc1cc(C)cc(Cc2ccccc2F)c1Cl [Compound 14, N′-(2-chloro-3-(2-fluorobenzyl)-5-methylphenyl)-N-ethyl-N-methylformimidamide]
≥ 70%: inhibition of growth at 300 ppm (Colletotrichum capsici) | inhibition of growth at 300 ppm (Rhizoctonia solani) | inhibition of growth at 300 ppm (Alternaria solani) | inhibition of growth at 300 ppm (Pyricularia oryzae) | pest or weed control at 500 ppm (Phakopsora pachyrhizi) | inhibition of growth at 300 ppm [1] | inhibition of growth at 300 ppm (Botrytis cinerea)

CCN(C)C=Nc1cc(F)cc(Nc2ccc(SC(F)(F)F)cc2)c1C [Compound 16, N-ethyl-N′-(5-fluoro-2-methyl-3-((4-((trifluoromethyl)thio)phenyl)amino)phenyl)-N-methylformimidamide]
≥ 70%: inhibition of growth at 300 ppm (Colletotrichum capsici) | inhibition of growth at 300 ppm (Rhizoctonia solani) | inhibition of growth at 300 ppm (Alternaria solani) | inhibition of growth at 300 ppm (Pyricularia oryzae) | pest or weed control at 500 ppm (Phakopsora pachyrhizi) | inhibition of growth at 300 ppm [1] | inhibition of growth at 300 ppm (Botrytis cinerea)

CCN(C)C=Nc1cc(C)cc(Cc2ccc(F)c(F)c2)c1Cl [Compound 67, N′-(2-chloro-3-(3,4-difluorobenzyl)-5-methylphenyl)-N-ethyl-N-methylformimidamide]
≥ 70%: inhibition of growth at 300 ppm (Colletotrichum capsici) | inhibition of growth at 300 ppm (Rhizoctonia solani) | inhibition of growth at 300 ppm (Alternaria solani) | inhibition of growth at 300 ppm (Pyricularia oryzae) | pest or weed control at 500 ppm (Phakopsora pachyrhizi) | inhibition of growth at 300 ppm [1] | inhibition of growth at 300 ppm (Botrytis cinerea)

CCN(C)C=Nc1cc(OC)cc(Cc2cc(C)cc(F)c2)c1C [Compound 292, N-ethyl-N′-(3-(3-fluoro-5-methylbenzyl)-5-methoxy-2-methylphenyl)-N-methylformimidamide]
≥ 70%: inhibition of growth at 300 ppm (Rhizoctonia solani) | inhibition of growth at 300 ppm (Alternaria solani) | inhibition of growth at 300 ppm (Pyricularia oryzae) | inhibition of growth at 300 ppm (Fusarium culmorum) | inhibition of growth at 300 ppm [1] | inhibition of growth at 300 ppm (Botrytis cinerea)
